Experimental data taken from patent US20240150351A1, “BICYCLIC COMPOUNDS” (Aligos Therapeutics, Inc., priority 2022, published 2024).
Counter-ions that a name gives are not always drawn.

Assays:
HBV = assay: HBV-DNA antiviral assay using HepG2.117 cells (intracellular HBV DNA by qPCR); assay type: cell-based, genotype D HBV; settings: 3 days incubation, HBV DNA inhibition
Description: (§1) The following assay procedure describes the HBV antiviral assay, using HepG2.117 cells, which carry a stably integrated genotype D HBV genome under the control of a Tet-off promoter, and intracellular HBV DNA quantification as endpoint. Cell viability is assessed in parallel by measuring the intracellular ATP content using CellTiter-Glo 2.0 (Promega).
On day 0, HepG2.117 cells (which are maintained in routine cell culture with doxycycline present in the medium at a final concentration of 1 μg/mL) are seeded in 96-well plates (white with clear bottom) at a density of 2.0×10^4 cells/well (0.1 mL/well) in medium without doxycycline to induce pgRNA transcription and subsequent formation of HBV particles. The cells are incubated at 37° C. and 5% CO2.
(§2) On day 1, medium is removed from each well, the test articles are diluted in culture medium without doxcycyline and 100 μL was added to cell culture wells (9 concentrations, 4-fold dilution). For each plate, 6 untreated (merely DMSO) wells are included. The final concentration of DMSO in the culture medium is 2%. Each plate is prepared in duplicate (one for HBV DNA extraction, one for CellTiter-Glo 2.0 measurement). The cells are incubated at 37° C. and 5% CO2 for 3 days.
(§3) On day 4, cell viability is assessed using CellTiter-Glo 2.0 and cell lysates are prepared for HBV DNA extraction and subsequent quantification by qPCR.
HBV DNA Quantification by qPCR
Medium is removed from each well and 100 μL of 0.33% NP-40 in H2O was added to each well. Plates are sealed, incubated at 4° C. for 5 mins, vortexed extensively and centrifuged briefly. Next, 35 μL of lysate is added to 65 μL QuickExtract DNA Extraction Solution (Epicentre) in a PCR plate for each well. PCR plate is incubated at 65° C. for 6 mins, 98° C. for 2 mins and finally cooled to 4° C. HBV DNA is then quantified by qPCR with HBV-specific primers and probes as specified in Table 2 using the Bio-Rad SSOAdvanced Universal Probes Supermix on a CFX96 machine (Bio-Rad). The PCR cycle program consisted of 95° C. for 3 mins, followed by 40 cycles at 95° C. for 10 sec and 60° C. for 30 sec.
A DNA standard is prepared by dilution of an IDT gBlock corresponding to the amplicon with concentrations ranging from 10^2 to 10^8 copies/input (i.e., per 4 μL) and used to generate a standard curve by plotting Cq values vs. HBV DNA standard concentration. The quantity of HBV DNA in each sample is determined by interpolating from the standard curve.
(§4) Cell viability is calculated as follows: % Cell viability=(luminescence value of test sample)/(average luminescence value of 2% DMSO control)×100%. HBV DNA inhibition was calculated as follows: 100−(HBV DNA copy number of test sample)/(average HBV DNA copy number of 2% DMSO control)×100%. No normalization to entecavir is required due to the excellent dynamic window of this assay. The CC50, EC50 and EC90 values were determined by dose-response curves fitted using non-linear regression.

HepG2.117 cells = assay: Cell viability by CellTiter-Glo 2.0 (intracellular ATP content); assay type: cell-based; settings: 3 days incubation
Description: as §1, §2, §3
(§5) Using the other plates, the cell viability is quantified by CellTiter-Glo 2.0 according to the manufacturer's manual. In brief, 100 μL of reagent solution is added to the culture plates and shaken for 2′. The plates are incubated at rt for 10 min and luminescence signal is subsequently measured on a VarioSkan Lux (ThermoFisher) plate reader.
as §4

[1] = as above; assay type: cell-based; settings: human, HepG2.117 cells, 3 days incubation
Description: as §1, §2, §3, §5, §4

Row | SMILES | EC50 (HBV) [nM] | CC50 (HepG2.117 cells) [µM] | EC50 (HBV; Hepatitis B virus, 72 h) [nM] | CC50 at 3 days [1] [µM]
1 | C=C[C@H](C)Nc1nc2c(c(=O)n1-c1ccc(C(=O)N(C)C(=O)O[C@@H](C)OC(=O)[C@@H](N)C(C)C)cc1)C[C@@H](C)N(C(=O)c1ccc(Br)c(C(F)(F)F)c1)C2 (relative stereo) [Compound 6, (*S)-1-(((4-((R)-7-(4-bromo-3-(trifluoromethyl)benzoyl)-2-(((S)-but-3-en-2-yl)amino)-6-methyl-4-oxo-5,6,7,8-tetrahydropyrido[3,4-d]pyrimidin-3(4H)-yl)benzoyl)(methyl)carbamoyl)oxy)ethyl L-valinate hydrochloride] | ≤ 50 | > 50 | – | –
2 | C=C[C@H](C)Nc1nc2c(c(=O)n1-c1ccc(C(=O)N(C)C(=O)O[C@H](C)OC(=O)[C@@H](N)C(C)C)cc1)C[C@@H](C)N(C(=O)c1ccc(Br)c(C(F)(F)F)c1)C2 (relative stereo) [Compound 7, (*R)-1-(((4-((R)-7-(4-bromo-3-(trifluoromethyl)benzoyl)-2-(((S)-but-3-en-2-yl)amino)-6-methyl-4-oxo-5,6,7,8-tetrahydropyrido[3,4-d]pyrimidin-3(4H)-yl)benzoyl)(methyl)carbamoyl)oxy)ethyl L-valinate hydrochloride] | ≤ 50 | > 50 | – | –
3 | C=C[C@H](C)Nc1nc2c(c(=O)n1-c1ccc(C(=O)N(C)C(=O)O[C@H](OC(=O)[C@@H](N)C(C)C)C(C)C)cc1)C[C@@H](C)N(C(=O)c1ccc(Br)c(C(F)(F)F)c1)C2 (relative stereo) [Compound 10, (*S)-1-(((4-((R)-7-(4-bromo-3-(trifluoromethyl)benzoyl)-2-(((S)-but-3-en-2-yl)amino)-6-methyl-4-oxo-5,6,7,8-tetrahydropyrido[3,4-d]pyrimidin-3(4H)-yl)benzoyl)(methyl)carbamoyl)oxy)-2-methylpropyl L-valinate hydrochloride] | ≤ 50 | > 50 | – | –
4 | C=C[C@H](C)Nc1nc2c(c(=O)n1-c1ccc(C(=O)N(C)C(=O)O[C@@H](OC(=O)[C@@H](N)C(C)C)C(C)C)cc1)C[C@@H](C)N(C(=O)c1ccc(Br)c(C(F)(F)F)c1)C2 (relative stereo) [Compound 11, (*R)-1-(((4-((R)-7-(4-bromo-3-(trifluoromethyl)benzoyl)-2-(((S)-but-3-en-2-yl)amino)-6-methyl-4-oxo-5,6,7,8-tetrahydropyrido[3,4-d]pyrimidin-3(4H)-yl)benzoyl)(methyl)carbamoyl)oxy)-2-methylpropyl L-valinate hydrochloride] | ≤ 50 | > 50 | – | –
5 | C=C[C@H](C)Nc1nc2c(c(=O)n1-c1ccc(C(=O)NC)cc1)C[C@@H](C)N(C(=O)c1ccc(Br)c(C(F)(F)F)c1)C2 [Compound 1, 4-((R)-7-(4-bromo-3-(trifluoromethyl)benzoyl)-2-(((S)-but-3-en-2-yl)amino)-6-methyl-4-oxo-5,6,7,8-tetrahydropyrido[3,4-d]pyrimidin-3(4H)-yl)-N-methylbenzamide] | – | – | ≤ 50 | 46.8
6 | C=C[C@H](C)Nc1nc2c(c(=O)n1-c1ccc(C(=O)N(C)C(=O)OCOP(=O)(O)O)cc1)C[C@@H](C)N(C(=O)c1ccc(Br)c(C(F)(F)F)c1)C2 [Compound 2, (phosphonooxy)methyl (4-((R)-7-(4-bromo-3-(trifluoromethyl)benzoyl)-2-(((S)-but-3-en-2-yl)amino)-6-methyl-4-oxo-5,6,7,8-tetrahydropyrido[3,4-d]pyrimidin-3(4H)-yl)benzoyl)(methyl)carbamate] | – | – | ≤ 50 | > 50
7 | C=C[C@H](C)Nc1nc2c(c(=O)n1-c1ccc(C(=O)N(C)C(=O)OCOC(=O)/C=C/C(=O)O)cc1)C[C@@H](C)N(C(=O)c1ccc(Br)c(C(F)(F)F)c1)C2 [Compound 3, (E)-4-((((4-((R)-7-(4-bromo-3-(trifluoromethyl)benzoyl)-2-(((S)-but-3-en-2-yl)amino)-6-methyl-4-oxo-5,6,7,8-tetrahydropyrido[3,4-d]pyrimidin-3(41H)-yl)benzoyl)(methyl)carbamoyl)oxy)methoxy)-4-oxobut-2-enoic acid] | – | – | ≤ 50 | > 50
8 | C=C[C@H](C)Nc1nc2c(c(=O)n1-c1ccc(C(=O)N(C)C(=O)OCOC(=O)[C@@H](N)C(C)C)cc1)C[C@@H](C)N(C(=O)c1ccc(Br)c(C(F)(F)F)c1)C2 [Compound 4, (((4-((R)-7-(4-bromo-3-(trifluoromethyl)benzoyl)-2-(((S)-but-3-en-2-yl)amino)-6-methyl-4-oxo-5,6,7,8-tetrahydropyrido[3,4-d]pyrimidin-3(4H)-yl)benzoyl)(methyl)carbamoyl)oxy)methyl L-valinate hydrochloride] | – | – | ≤ 50 | > 50
9 | C=C[C@H](C)Nc1nc2c(c(=O)n1-c1ccc(C(=O)N(C)C(=O)OCOC(=O)[C@H](N)C(C)C)cc1)C[C@@H](C)N(C(=O)c1ccc(Br)c(C(F)(F)F)c1)C2 [Compound 5, (((4-((R)-7-(4-bromo-3-(trifluoromethyl)benzoyl)-2-(((S)-but-3-en-2-yl)amino)-6-methyl-4-oxo-5,6,7,8-tetrahydropyrido[3,4-d]pyrimidin-3(4H)-yl)benzoyl)(methyl)carbamoyl)oxy)methyl D-valinate hydrochloride] | – | – | ≤ 50 | 48.8
10 | C=C[C@H](C)Nc1nc2c(c(=O)n1-c1ccc(C(=O)N(C)CO)cc1)C[C@@H](C)N(C(=O)c1ccc(Br)c(C(F)(F)F)c1)C2 [Compound 8, 4-((R)-7-(4-bromo-3-(trifluoromethyl)benzoyl)-2-(((S)-but-3-en-2-yl)amino)-6-methyl-4-oxo-5,6,7,8-tetrahydropyrido[3,4-d]pyrimidin-3(4H)-yl)-N-(hydroxymethyl)-N-methylbenzamide] | – | – | ≤ 50 | > 50
11 | C=C[C@H](C)Nc1nc2c(c(=O)n1-c1ccc(C(=O)N(C)C(=O)OCOC(=O)C[C@H](O)C(=O)O)cc1)C[C@@H](C)N(C(=O)c1ccc(Br)c(C(F)(F)F)c1)C2 [Compound 9, (S)-4-((((4-((R)-7-(4-bromo-3-(trifluoromethyl)benzoyl)-2-(((S)-but-3-en-2-yl)amino)-6-methyl-4-oxo-5,6,7,8-tetrahydropyrido[3,4-d]pyrimidin-3(4H)-yl)benzoyl)(methyl)carbamoyl)oxy)methoxy)-2-hydroxy-4-oxobutanoic acid] | – | – | ≤ 50 | > 50
